Tested on: Wistar rats
[1] = 960 mg/kg/24 h 2-IB in 5% Solutol, continuous iv infusion

Protocol: Group I: Vehicle 20% Solutol (Continuous Intravenous Infusion)
Animals received a continuous infusion of vehicle only (20% Solutol in 5% dextrose) at a dose volume of 4 mL/kg/h for 24 hours.
Group II: Vehicle 5% Solutol (Continuous Intravenous Infusion)
Animals received a continuous infusion of vehicle only (5% Solutol in 5% dextrose) at a dose volume of 4 mL/kg/h for approximately 96 hours.
Group III: 960 mg/kg/24 h of 2-IBin 5% Solutol (Continuous Intravenous Infusion).

## N=C1N[C@H]2[C@H](CS[C@H]2CCCCC(=O)O)N1 [Formulation 2-IB, 2-iminobiotin]
[1]
  bilirubin levels: within the normal range
  body weights: increased for two animals
  clinical chemistry at the end of treatment: slight to moderate increase in aspartate aminotransferase (1/2), alkaline phosphatase (1/2), and glucose (2/2)
  creatinine and urine at the end of treatment: high values for creatinine and urine (1/2)
  macroscopic findings at necropsy: oedema (2/3), pelvic dilation of the kidneys (2/3), enlarged liver (1/3), enlarged iliac lymph node (113), dark spots on the lungs (1/3), and fibrin-like coating in or around the femoral vein
960 mg/kg/24 h 2-IB in 5% Solutol, continuous iv infusion, Days 2-3
  clinical signs: hunched posture, piloerection and pallor
960 mg/kg/24 h 2-IB in 5% Solutol/5% dextrose, continuous iv infusion 4 mL/kg/h, terminated after 46 hours
  mortality: One animal died after 46 hours of infusion

From patent US9023878B2 (Neurophyxia B.V., priority 2010, dated 2015)
